Starred links: 1 amine or outer side, 2 acyl side, 3 side chain; linkers in the order of their positions; H or OH if unused. Positions of bridges follow the written chain, without caps; N, C: chain ends. Non-standard residues stand in square brackets, D forms with d. Residues, ends and D or L forms follow the SMILES beside them. Chains are numbered I, II in the order given. Actinocin(9to1) = Cc1c2oc3c(C)ccc(C(=O)[*:1])c3nc-2c(C(=O)[*:2])c(N)c1=O; NMeV = CN[C@H](C(=O)O)C(C)C; Sar = CNCC(=O)O
System: retinal endothelial cells (REC)
Assay: REC angiogenic assays taken together (proliferation, secondary sprouting, migration, tube formation)
Type: cell-based, bovine
Details: all assays
Procedure: Human REC (from normal, diabetic and patients with DR [“DR REC”]) and bovine REC were cultured in monolayer (for migration assay) or on top of Matrigel™ where cells form capillary-like tubes. They were treated with angiogenic growth factors or their combinations (at 10 ng/ml of each factor), and seeded with or without TN-C at 10-50 μg/mL. Cell numbers were determined by MTS assay (Promega Corp., Madison, Wis.). Tube length and number, and cell migration were assessed microscopically.
Treatment of REC cultures. Duplicate REC cultures on plastic (for migration) or Matrigel™ with the same number of cells per dish are treated with previously established working concentrations of signaling inhibitors and/or select growth factor combinations. Treatments begin at the time of seeding the cells and medium is changed every other day. Single growth factors are used as negative controls since their modulation of TN-C effects was minimal. Working growth factor concentrations were as follows: VEGF, 1-50 ng/mL depending on the assay; PlGF, 100 ng/mL; FGF-2, 10-100 ng/mL; IGF-I, 25-100 ng/mL; PDGF-BB, 10-100 ng/mL. When used as combinations, each growth factor was supplied at 10 ng/mL for optimum synergy. […]

Cc1c2oc3c(C)ccc(C(=O)N[C@@H]4C(=O)N[C@H](C(C)C)C(=O)N5CCC[C@H]5C(=O)N(C)CC(=O)N(C)[C@@H](C(C)C)C(=O)O[C@@H]4C)c3nc-2c(C(=O)N[C@@H]2C(=O)N[C@H](C(C)C)C(=O)N3CCC[C@H]3C(=O)N(C)CC(=O)N(C)[C@@H](C(C)C)C(=O)O[C@@H]2C)c(N)c1=O [Actinomycin D] (I: T[dV]P[Sar][NMeV] / II: T[dV]P[Sar][NMeV]; ester I:1-I:C, II:1-II:C; linker I:N-II:N via Actinocin(9to1))
effect of inhibitor in the angiogenic assays: only minor changes

— patent publication US20040121968A1, “Antiangiogenesis by inhibiting protein kinase CK2 activity” (priority 2002, published 2004)
